Experimental data: patent US4470840A, “1-Triacontanol plant growth stimulator formulations” (Biochemical Research Corporation, priority 1981, dated 1984)

Columns and labels:
[1] = system: Hybrid Sweet Corn Seedlings (cv. Silver Queen); test: Lengths of stems and total plant length of seedlings sprayed Day 7; type: in vivo; conditions: T = 1-triacontanol 0.1 mg/liter
Radishes (cv. Champion) = test: Field trial: crop yield; type: in vivo; conditions: 1-triacontanol 0.25 mg/liter, pH 9.7; for Dry wt. (crop yield): per twenty plants, without foliage
Method: (§1) Field trials were conducted in Northern Virginia on plots that were replicated at least five items. Plots consisted of single rows of plants in blocks of three or more plots, with treatments being assigned randomly within each block.
(§2) Plants were fertilized with the fertilizers described in Table 1, and sprayed at air temperatures listed in the same Table. Spraying was usually avoided under windy conditions to avoid drift. In the examples set forth herein, data were treated in a similar manner to those found in the greenhouse trials, with analysis of variance performed for each trial, and the use of a suitable statistical method for the analysis of results, preferably Duncan's multiple range test.

[2] = system: Sweet Corn (cv. Silver Queen, Early Sunglow, Jubilee); test: Field trial: crop yield and seed size; type: in vivo; conditions: for Percent increase in marketable yield: triacontanol 0.25 mg/l
Method: as §1
(§3) Plants were fertilized with the fertilizers described in Table 1, and sprayed at air temperatures listed in the same Table. Spraying was usually avoided under windy conditions to avoid drift.

[3] = system: Beans (cv. Blue Lakes Stringless, Early Bird); test: Field trial: crop yield and seed size; type: in vivo; conditions: 100 seeds, CaCl2 5 mM, no IAA, 1-triacontanol 0.25 mg/liter
Method: as §1, §3

[4] = system: Pea Seedlings (cv. Dark Skin); test: Greenhouse trial: dry weight of seedlings; type: in vivo, peas; conditions: 1-triacontanol 0.1 mg/liter; for Dry wt.: sum of four plants
Method: (§4) In general, greenhouse trials were conducted as follows: eight to twelve seeds were sown per pot in Peat-Lite® Mix and received an average of 100 ml of water per day. After plants had the third true leaf (average), the various formulations were applied to the leaves as a fine mist at air temperatures listed in Table 1. Temperatures above 20° C., preferably 25°-30° C., are preferred.
(§5) The 1-triacontanol formulation most generally used consisted of a concentrate containing 5 mg of 1-triacontanol dissolved in 1 liter of acetone, with 20 ml of the concentrate being further dissolved to 1 liter with water having a pH between 8 and 10, with over a pH of 11 also being effective. The pH was adjusted with aqueous NaOH and the concentrate added just prior to spraying.
(§6) When other plant growth substances were added to the formulations, these were added either to the concentrate in the polar organic solvent or alternatively in the aqueous solution, depending on the solubility of the plant growth substance. All metal salts were added to the water used to spray the 1-triacontanol formulations. After spraying, preferably about four to nine days or more, plants were harvested with roots, and fresh weights were obtained. Plants were then dried in an oven, preferably at a temperature below 100° C., until constant weight was obtained, and dry weight values were obtained for each plot. Subtraction of the dry weights from the fresh weights gave the water uptake weights (water content) of each plot. The weights of the above mentioned seedlings were compared to the control weights to obtain the percent increases.
(§7) It is particularly advantageous to arrange each of the potted plants in size range categories corresponding to the number of replications used. For example, if five replications are employed, plants are divided into five size categories, normally measured by the height of the plants. Treatments are then assigned randomly within each block (size category). This removes the variation due to plant size for statistical purposes, as is well practiced in the art. The resulting data is analyzed using any appropriate means, which may include the least significant difference method (L.S.D. method), Duncan's multiple range test, as used here (Biometrics, 11: 1 (1955)), or other means.

[5] = system: Watermelon Seedlings (cv. Dixie Queen); test: Greenhouse trial: dry weight of seedlings; type: in vivo; conditions: 1-triacontanol 0.1 mg/liter, pH 9.8; for Dry wt.: per 4 plants
Method: as §4, §5, §6, §7

[6] = system: Winter Wheat Seedlings (cv. Augusta); test: Greenhouse trial: dry weight of seedlings; type: in vivo; conditions: triacontanol 0.1 mg/l, pH 9.0
Method: as §4, §5, §6, §7

[7] = system: Soybean Seedlings (cv. Prize); test: Greenhouse trial: dry weight of seedlings; type: in vivo; conditions: for Dry wt.: per four plants per plot
Method: as §4, §5, §6, §7

Peas (cv. Dark Skin) = test: Field trial: marketable yield; type: in vivo; conditions: 1-triacontanol 0.25 mg/liter, pH 8.7; for Fresh wt (marketable yield): per 12 plants per plot
Method: as §1, §2

[8] = CaCl2 50.0 mM, IAA 10 μM (Formulation 14)
[9] = CaCl2 50 mM, NAA 1.5 μM (Formulation 7)
[10] = CaCl2 5 mM, 1-triacontanol 0.1 mg/liter
[11] = CaCl2 10 mM, 1-triacontanol 0.1 mg/liter
[12] = CaCl2 20 mM, 1-triacontanol 0.1 mg/liter

SMILES: CCCCCCCCCCCCCCCCCCCCCCCCCCCCCCO [1-Triacontanol, 1-triacontanol]
- Increase in length "a" [1]: 0%
- Increase in length "b" [1]: +15%
- Length "a" (stem to the first leaf) ([1]; control 11.5 cm): 11.5 cm
- Length "b" (total plant length) ([1]; control 25.0 cm): 28.8 cm
- Percent increases (crop yield) (Radishes (cv. Champion); CaCl2 10 mM, no IAA): 32%
- Dry wt. (crop yield) (Radishes (cv. Champion); CaCl2 10 mM, no IAA, control 93 g): 123 g
- Percent increases (crop yield) (Radishes (cv. Champion); CaCl2 50 mM, IAA 10 μM): +69%
- Dry wt. (crop yield) (Radishes (cv. Champion); CaCl2 50 mM, IAA 10 μM): 157 g
- Percent increase in marketable yield ([2]; cv. Early Sunglow, CaCl2 10 mM, no IAA, pH 9.8): +47%
- Percent increase in marketable yield ([2]; cv. Early Sunglow, CaCl2 50 mM, IAA 10 μM, pH 9.8): +20%
- Percent increase in marketable yield ([2]; cv. Jubilee, CaCl2 10 mM, no IAA, pH 9.7): +44%
- Percent increase in marketable yield ([2]; cv. Jubilee, CaCl2 50 mM, IAA 10 μM, pH 9.7): +31%
- Percent increases (size of seeds) ([2]; cv. Silver Queen, 500 seeds, CaCl2 9 mM, no IAA, 1-triacontanol 0.25 mg/liter): +47%
- Wt. of treated seed ([2]; cv. Silver Queen, 500 seeds, CaCl2 9 mM, no IAA, 1-triacontanol 0.25 mg/liter, control seed 29.7 g): 43.8 g
- Percent increase in marketable yield ([2]; cv. Silver Queen, CaCl2 10 mM, no IAA, pH 10.4): +49%
- Percent increase in marketable yield ([2]; cv. Silver Queen, CaCl2 50 mM, IAA 10 μM, pH 10.4): +16%
- Increases (field trial data for the previous year) ([2]; cv. Silver Queen, previous year, three out of three trials): 51-54%
- Percent increases (size of seeds) [3]: +54%
- Wt. of treated seed ([3]; control seed 18.1): 27.8 g
- Percent increases (dry weight) ([4]; CaCl2 0.0 mM, no IAA): -5%
- Dry wt. ([4]; CaCl2 0.0 mM, no IAA, control 0.83): 0.79 gm
- Percent increases (dry weight) ([4]; CaCl2 1.0 mM, no IAA): +1%
- Dry wt. ([4]; CaCl2 1.0 mM, no IAA): 0.84 gm
- Percent increases (dry weight) ([4]; CaCl2 3.0 mM, no IAA): -7%
- Dry wt. ([4]; CaCl2 3.0 mM, no IAA): 0.77 gm
- Percent increases (dry weight) ([4]; CaCl2 5.0 mM, no IAA): +7%
- Dry wt. ([4]; CaCl2 5.0 mM, no IAA): 0.89 gm
- Percent increases (dry weight) ([4]; CaCl2 10.0 mM, no IAA): +18%
- Dry wt. ([4]; CaCl2 10.0 mM, no IAA): 0.98 gm
- Percent increases (dry weight) ([4]; CaCl2 15.0 mM, no IAA): +33%
- Dry wt. ([4]; CaCl2 15.0 mM, no IAA): 1.10 gm
- Percent increases (dry weight) [4, 8]: +46%
- Dry wt. [4, 8]: 1.21 gm
- Percent increases (dry weight) ([5]; CaCl2 5 mM, no IAA): +38%
- Dry wt. ([5]; CaCl2 5 mM, no IAA, sprayed Day 36, harvested Day 45, control 0.61 g): 0.84 gm
- Percent increases (dry weight) ([5]; CaCl2 10 mM, no IAA): +48%
- Dry wt. ([5]; CaCl2 10 mM, no IAA): 0.90 gm
- Percent increases (dry weight) ([5]; CaCl2 50 mM, IAA 10 μM): +65%
- Dry wt. ([5]; CaCl2 50 mM, IAA 10 μM): 1.01 gm
- Increase (dry weight) ([6]; CaCl2 0 mM, no NAA): 0%
- Dry wt. ([6]; CaCl2 0 mM, no NAA, average sum of four plants per plot, control 0.513 g): 0.520 g
- Dry wt. ([6]; CaCl2 5 mM, no NAA): 0.502 g
- Increase (dry weight) ([6]; CaCl2 5 mM, no NAA): -2%
- Dry wt. ([6]; CaCl2 10 mM, no NAA): 0.682 g
- Increase (dry weight) ([6]; CaCl2 10 mM, no NAA): +33%
- Dry wt. ([6]; CaCl2 15 mM, no NAA): 0.616 g
- Increase (dry weight) ([6]; CaCl2 15 mM, no NAA): +20%
- Dry wt. ([6]; CaCl2 20 mM, no NAA): 0.682 g
- Increase (dry weight) ([6]; CaCl2 20 mM, no NAA): +33%
- Dry wt. ([6]; CaCl2 25 mM, no NAA): 0.708 g
- Increase (dry weight) ([6]; CaCl2 25 mM, no NAA): +38%
- Dry wt. [6, 9]: 0.872 g
- Increase (dry weight) [6, 9]: +70%
- Dry wt. ([7]; CaCl2 3 mM as printed, 1-triacontanol 0.1 mg/liter): 1.96 g
- Increase (dry weight) [7, 10]: +17%
- Dry wt. [7, 10]: 2.30 g
- Increase (dry weight) [7, 11]: +37%
- Dry wt. [7, 11]: 2.68 g
- Increase (dry weight) [7, 12]: +35%
- Dry wt. [7, 12]: 2.65 g
- Increase (dry weight) ([7]; line printed as "Control" but with an increase): +7%
- Percent increases (marketable yield) (Peas (cv. Dark Skin); CaCl2 10 mM, no IAA): +35%
- Fresh wt (marketable yield) (Peas (cv. Dark Skin); CaCl2 10 mM, no IAA, control 59): 78 gm
- Percent increases (marketable yield) (Peas (cv. Dark Skin); CaCl2 15 mM, no IAA): +63%
- Fresh wt (marketable yield) (Peas (cv. Dark Skin); CaCl2 15 mM, no IAA): 97 gm
- Percent increases (marketable yield) (Peas (cv. Dark Skin); CaCl2 50 mM, IAA 10 μM): +32%
- Fresh wt (marketable yield) (Peas (cv. Dark Skin); CaCl2 50 mM, IAA 10 μM): 79 gm
- Percent increases (marketable yield) (Peas (cv. Dark Skin); CaCl2 75 mM, IAA 10 μM): +69%
- Fresh wt (marketable yield) (Peas (cv. Dark Skin); CaCl2 75 mM, IAA 10 μM): 100 gm
